Results published in patent publication US20230272002A1, “PHOTOREDOX PROTEIN MODIFICATION” (THE ROSALIND FRANKLIN INSTITUTE, priority 2020, published 2023).
Values belong to the molecule of their own block, whether it stands above or below them.

Columns and labels:
KDM4A = target: T1, KDM4A (Homo sapiens, UniProt O75164); experiment: Zn ejection assay (TSQ Zn(II) fluorophore); assay type: biochemical; settings: 20 μM compound, 2 μM KDM4A
T1 sequence (O75164 1-1064): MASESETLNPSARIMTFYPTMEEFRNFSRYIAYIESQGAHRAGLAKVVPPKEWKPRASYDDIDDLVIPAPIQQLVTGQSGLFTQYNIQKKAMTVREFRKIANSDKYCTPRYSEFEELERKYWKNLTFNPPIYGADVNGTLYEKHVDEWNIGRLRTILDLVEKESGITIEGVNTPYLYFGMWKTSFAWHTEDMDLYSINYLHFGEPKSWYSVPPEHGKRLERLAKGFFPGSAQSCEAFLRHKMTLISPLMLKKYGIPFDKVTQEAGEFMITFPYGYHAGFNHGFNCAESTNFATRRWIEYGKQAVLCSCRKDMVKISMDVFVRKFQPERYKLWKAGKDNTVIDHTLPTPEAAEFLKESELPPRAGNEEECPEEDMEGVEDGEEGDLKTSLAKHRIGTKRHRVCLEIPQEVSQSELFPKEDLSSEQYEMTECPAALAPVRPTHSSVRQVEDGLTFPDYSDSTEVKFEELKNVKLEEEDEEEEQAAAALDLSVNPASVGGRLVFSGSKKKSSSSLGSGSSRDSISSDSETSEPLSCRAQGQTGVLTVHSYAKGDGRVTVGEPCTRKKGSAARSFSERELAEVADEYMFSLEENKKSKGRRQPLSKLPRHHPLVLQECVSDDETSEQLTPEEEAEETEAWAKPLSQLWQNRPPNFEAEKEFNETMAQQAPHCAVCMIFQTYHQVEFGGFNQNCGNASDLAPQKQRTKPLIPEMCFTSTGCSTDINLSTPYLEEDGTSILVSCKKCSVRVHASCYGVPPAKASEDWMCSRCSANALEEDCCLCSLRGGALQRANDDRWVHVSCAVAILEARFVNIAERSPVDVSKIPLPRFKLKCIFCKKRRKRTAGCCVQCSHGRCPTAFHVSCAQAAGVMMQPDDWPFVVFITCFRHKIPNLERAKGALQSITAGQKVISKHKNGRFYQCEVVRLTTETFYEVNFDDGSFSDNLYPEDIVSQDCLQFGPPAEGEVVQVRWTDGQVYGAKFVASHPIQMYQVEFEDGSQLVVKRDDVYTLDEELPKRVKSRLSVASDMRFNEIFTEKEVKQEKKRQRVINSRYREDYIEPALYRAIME
Protocol: Zn ejection assay was performed using N-(6-nethoxy-8-quinolyl)-p-toluenesulfonamide (TSQ) (Enzo) Zn(II) fluorophore as described with minor modifications28,33. In brief, assays were performed in 384 well black μCLEAR® non-binding plates (Grenier) using a reaction volume of 100 μL at 37° C. on a BMG CLARIOstar (360ex/490em). The plate was shaken (5 s, 700 rpm) before each reading, taken every 22 s for 270 cycles. Reactions consisted of […], 25 μM Ebselen or 20 μM H3 K9Bhn/H3-wt/4-bromobutylboronic acid, and those with enzyme contained 2 μM KDM4A all with 1.1% (v/v) DMSO in 50 mM HEPES (pH 7.5). Compounds and TSQ were added to the plate before initiating the assay with addition of KDM4A using the CLARIOstar injector (FIG. 4d). An internal calibration curve of ZnCl2 (0-2 μM) in 50 mM HEPES (pH 7.5) was included in each experiment to quantitate the concentrations of Zn(II) ejected. Data were normalised by subtracting a no enzyme control for that compound at each time point. Mean±standard deviation (n=3 technical replicates) was plotted for each time point using GraphPad Prism 5.0, representative data from three biological replicates is shown.
The rate of Zn(II) ejection was calculated from the slope of linear regression plotted over the linear region of Zn(II) ejection (from 946-3982 s) plotted in GraphPad Prism 5.0. […]

Cyclic voltammetry = assay type: physicochemical
Protocol: Catechol and 4-bromobutylboronic acid were obtained from Sigma-Aldrich and used as received without further purification. All solutions were made up using ultrapure water of resistivity not less than 18.2 MQ cm (Millipore) at 25° C. and degassed thoroughly with nitrogen (99.998%, BOC Gases plc) before use. Phosphate buffered saline (PBS) solution (pH=6.0) consisting of 43.85 mM sodium phosphate monobasic and 6.15 mM potassium phosphate dibasic.
All voltammetric measurements were recorded using an Autolab PGSTAT30 computer controlled potentiostat (Metrohm, Utrecht, The Netherlands). Experiments were performed in a thermostatted (25.0+0.3° C.) Faraday cage using a three-electrode set-up. A glassy carbon macroelectrode (diameter 3.0 mm, CH Instrument) was used as the working electrode, a saturated calomel electrode (SCE) as the reference electrode (SCE, ALS distributed by BASi, Tokyo, Japan) and a graphite rod as the counter electrode. Prior to each voltammetric experiment, renewal of the working electrode surface was achieved by polishing with alumina slurries in the size sequence 1.0 m, 0.3 m and 0.05 m, (Buehler Ltd, USA) followed by sonication in water and drying with nitrogen.

Sirt2 = target: T2, Sirt2 (Homo sapiens, UniProt Q8IXJ6); experiment: Sirt2 deacylation of acylated histone H3-K18 (intact-protein LC-MS timecourse, 19F-NMR); assay type: biochemical; settings: deacylation of γ-F2 labelled KAc side chain, protein 19F NMR
T2 construct: His tag (inferred from the HisTrap purification); made in house; host or cells: E. coli BL21(DE3)
T2 sequence (Q8IXJ6 1-389): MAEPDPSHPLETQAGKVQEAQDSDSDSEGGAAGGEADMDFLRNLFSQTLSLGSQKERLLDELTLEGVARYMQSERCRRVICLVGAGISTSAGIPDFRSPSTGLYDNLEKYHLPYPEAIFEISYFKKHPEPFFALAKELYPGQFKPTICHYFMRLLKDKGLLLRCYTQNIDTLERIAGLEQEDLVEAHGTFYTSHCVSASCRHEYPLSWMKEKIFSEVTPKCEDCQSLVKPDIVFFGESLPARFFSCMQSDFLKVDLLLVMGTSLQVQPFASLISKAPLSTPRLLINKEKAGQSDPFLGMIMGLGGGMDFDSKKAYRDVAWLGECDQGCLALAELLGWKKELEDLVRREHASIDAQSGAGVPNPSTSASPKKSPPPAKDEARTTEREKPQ
From the text: H3-KAc18 and H3-KBzl8 were generated using BACED reagents (FIG. 4A).
The pySOOF reagents were also used to generate corresponding H—F labeled side chain analogues such as K[γF2]Ac and K[γF2] sidechains 2 k and 2f, respectively. […] Other sidechain variations could similarly be distinguished at different sites in the same protein e.g. H3.1-K9→H3.1-KAc9→H3.1-Kme39 (sidechains 2f→2 k→2j=δF −99.0→−98.0→−99.2) or H3.1-M27 (sidechain 2×δF −74.8) or H3.1-E9 (sidechain 2u δF −103.3). In this way, the diverse scope of available further sidechains allows this approach to be explored in numerous additional directions such as e.g. monitoring heteroatom variation (e.g. N→O, ‘deaza-oxo’ variant KOAc, sidechain 2r for H3.1-K18→H3.1-KOAc18, sidechains 2 k→2r) or even precisely assaying sidechain Met oxidation state (H3.1-M27→H3.1-Mox27→H3.1-Mox27, sidechains 2x→2y→2z).
Due to the site-selectivity of the insertion of this label and its excellent sensitivity in ‘zero background’, not only could chemical shift of ^19F signal be ‘read’ but also its multiplicity through correlated simulation (FIG. 4B).

Time-dependent release of Zn(II) from KDM4A observed (KDM4A): not
Zn(II)-ejection rate (KDM4A; 50 mM HEPES pH 7.5, 37° C., slope of linear region 946-3982 s): 0.805 ± 0.010 nM/min
oxidation in the absence of catechol (Cyclic voltammetry; absence of catechol): no oxidation was observed
half potential Eox (irreversible oxidation event) (Cyclic voltammetry; catechol-enhanced conditions (1:12), saturated calomel reference electrode): +0.93 V
Molecule: OB(O)CCCCBr [Example 1u-precursor, 4-bromobutylboronic acid]

L/D selectivity preference (Sirt2): > 14
ΔΔG of L/D selectivity (Sirt2): > 1.58 kcal/mol
B1: Sirt2: HDAC deacylation enzyme Sirt2 (protein, UniProt Q8IXJ6 2-389, looked up)
NAD-dependent protein …: AEPDPSHPLETQAGKVQEAQDSDSDSEGGAAGGEADMDFLRNLFSQTLSLGSQKERLLDELTLEGVARYMQSERCRRVICLVGAGISTSAGIPDFRSPSTGLYDNLEKYHLPYPEAIFEISYFKKHPEPFFALAKELYPGQFKPTICHYFMRLLKDKGLLLRCYTQNIDTLERIAGLEQEDLVEAHGTFYTSHCVSASCRHEYPLSWMKEKIFSEVTPKCEDCQSLVKPDIVFFGESLPARFFSCMQSDFLKVDLLLVMGTSLQVQPFASLISKAPLSTPRLLINKEKAGQSDPFLGMIMGLGGGMDFDSKKAYRDVAWLGECDQGCLALAELLGWKKELEDLVRREHASIDAQSGAGVPNPSTSASPKKSPPPAKDEARTTEREKPQ
